Results on 2 compounds are retold here after patent US20160136127A1, “USE OF TETRAHYDROCANNABINOL AND/OR CANNABIDIOL FOR INCREASING RADIOSENSITVITY IN THE TREATMENT OF A BRAIN TUMOUR” (GW PHARMA LIMITED, priority 2013, published 2016).

Experiment [1] deals with glioma cell lines T98G, U87MG and GL261. Briefly: Clonogenic cell survival assay after irradiation (radiosensitivity of glioma cell lines). The experiment is classed as cell-based, human (T98G, U87MG); mouse (GL261). The conditions noted are these: pure phytocannabinoid used alone, increasing concentrations, 24 h prior to irradiation (0, 1, 2 and 5 Gy, Cs137); FIG. 2 / FIG. 3. The procedure:
The human glioma cell lines T98G and U87MG were obtained from ATCC, and were lines derived from patients with a glioblastoma multiforme tumour and a glioblastoma astrocytoma respectively.
The mouse glioma cell line GL261, which is syngeneic to the C57BL/6 mouse was acquired from the NCI.
Cells were exposed to increasing doses of irradiation and then clonogenic cell survival assays were performed. The ability of the cells to survive an irradiation insult and go on and divide indefinitely forming a colony was assessed in this manner and used as our read-out of radiosensitivity.
Cells were initially seeded into flasks and left to adhere overnight. […] Cells were then harvested, counted and seeded again at increasing densities in 6-well plates, adjusting the density appropriately for the radiation dose, and then incubated for approximately 14 days. […] Colonies consisting of >50 cells were counted and calculated as a proportion of the number of cells initially seeded (surviving fraction). […]
Cells were initially seeded into flasks and left to adhere overnight. […] Cells were then harvested, counted and seeded again at increasing densities in 6-well plates, adjusting the density appropriately for the radiation dose, and then incubated for approximately 14 days. […] Colonies consisting of >50 cells were counted and surviving fraction was calculated. […]

Experiment [2] deals with U87 and U373 human glioma cell lines. The conditions noted are these: cited from earlier work.
The test system of experiment [3] is U87 human glioma cells subcutaneously implanted to nude mice. The following applies: cited from earlier work.

Structures are written as SMILES.

Regarding `C=C(C)[C@@H]1CCC(C)=C[C@H]1c1c(O)cc(CCCCC)cc1O` [CBD, Cannabidiol], in experiment [1], the “effect on radiosensitivity (surviving fraction)” value is “did not appear to alter the radiosensitivity”. In experiment [2], the anti-proliferative effects in-vitro result was “anti-proliferative effects”. Besides, in experiment [3], the anti-proliferative effects in-vivo entry was “anti-proliferative effects”.

Take `CCCCCc1cc(O)c2c(c1)OC(C)(C)[C@@H]1CCC(C)=C[C@@H]21` [THC, Tetrahydrocannabinol]: in experiment [1], the “effect on radiosensitivity (surviving fraction)” value is on record as “did not appear to alter the radiosensitivity”.
